Here are results for 17 compounds from patent US20090312349A1, “ANTI-INFLAMMATORY MEDICAMENTS” (priority 2004, published 2009).

Assay [1] deals with T1, KDR kinase (Homo sapiens, UniProt P35968, DEL940-989/E990V). Nature of the assay: KDR kinase assay K2.
Assay [2] addresses T2, B-Raf(V599E) kinase (Homo sapiens, UniProt P15056, V600E). The assay is described as follows: B-Raf(V599E) kinase assay B1. The assay is classed as biochemical. As to conditions: Method B1; construct 1. The method, then: (§1) The test compounds were incubated with the reaction mixture at 30° C. for 2 h. […] The reaction rate was calculated using the 1.5 h to 2.5 h time frame. […] IC50 values were calculated from a series of percent inhibition values determined at a range of inhibitor concentrations using software routines as implemented in the GraphPad Prism software package.
Target sequence in this assay (P15056 with tags, fused parts or gaps V600E): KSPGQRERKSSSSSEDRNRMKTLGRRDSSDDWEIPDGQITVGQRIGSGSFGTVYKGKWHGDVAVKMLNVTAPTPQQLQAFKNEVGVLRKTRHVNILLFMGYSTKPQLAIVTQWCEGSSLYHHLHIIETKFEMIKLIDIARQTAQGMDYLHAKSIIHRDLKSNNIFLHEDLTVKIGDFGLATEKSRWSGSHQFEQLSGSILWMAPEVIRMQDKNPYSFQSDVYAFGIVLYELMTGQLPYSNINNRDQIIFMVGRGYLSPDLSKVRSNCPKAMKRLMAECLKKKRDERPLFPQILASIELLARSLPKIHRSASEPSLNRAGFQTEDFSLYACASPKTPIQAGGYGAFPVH

Assay [3] addresses T3, phospho p-38 alpha kinase (Homo sapiens, UniProt Q16539).
T3 construct: purchased Panvera
Nature of the assay: P-38 alpha kinase assay (spectrophotometric, pyruvate kinase/lactate dehydrogenase coupled). In kind it is biochemical. As to conditions: Table 5; for IC50: assay not named, read-out: uM.

The target of assay [4] is T4, Abl kinase (Homo sapiens, UniProt P00519).
T4 sequence (P00519 229-512): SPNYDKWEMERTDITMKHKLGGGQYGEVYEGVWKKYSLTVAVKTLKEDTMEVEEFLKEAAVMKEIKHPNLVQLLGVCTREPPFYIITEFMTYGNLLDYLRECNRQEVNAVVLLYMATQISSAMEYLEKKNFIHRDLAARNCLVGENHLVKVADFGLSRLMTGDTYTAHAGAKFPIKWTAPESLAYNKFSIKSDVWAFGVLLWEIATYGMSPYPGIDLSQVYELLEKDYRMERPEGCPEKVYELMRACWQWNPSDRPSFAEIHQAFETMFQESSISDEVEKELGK
The assay is described as follows: Abl kinase assay A2. The note with it: Method A2; 2 h pre-incubation, 0.5 mM ATP. In kind it is biochemical. The protocol:
(§2) IC50 values were calculated from a series of percent inhibition values determined at a range of inhibitor concentrations using software routines as implemented in the GraphPad Prism software package.

Assay [5] addresses phosphorylated p-38-alpha kinase (Homo sapiens, UniProt Q16539). The assay is described as follows: P-38 alpha kinase assay P1. The assay is classed as biochemical. The note with it: Method P1; for Results, % @ concentration μM: @ 1.0 μM; for IC50: 2 h pre-incubation before ATP.
Assay [6] deals with T2, B-Raf(V599E) kinase. The assay is described as follows: biochemical. As to conditions: for inhibition at 1 µM / inhibition at 10 µM: read-out: Results, % @ concentration μM; for IC50: Method B2, construct 2. The method, then: as §1
Target sequence in this assay (P15056 433-726 V600E): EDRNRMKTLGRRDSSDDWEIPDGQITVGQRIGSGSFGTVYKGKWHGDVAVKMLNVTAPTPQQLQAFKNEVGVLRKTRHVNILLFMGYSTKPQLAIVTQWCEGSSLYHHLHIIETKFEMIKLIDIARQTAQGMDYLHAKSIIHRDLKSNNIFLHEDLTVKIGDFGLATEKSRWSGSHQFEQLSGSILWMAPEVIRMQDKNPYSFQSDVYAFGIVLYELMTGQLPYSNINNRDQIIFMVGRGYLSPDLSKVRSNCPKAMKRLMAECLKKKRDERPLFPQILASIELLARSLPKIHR
Same as assay B1 except that (1) construct 2 was employed at a nominal concentration of 2 nM (2) the reaction was pre-incubated at 30° C. for 1 h prior to initiation with ATP (3) a reading time frame of 0.5 h to 1.5 h.

In a further assay the target is p38 MAP kinase (Homo sapiens, UniProt Q16539). Nature of the assay: P38 MAP kinase binding assay (fluorescence competition with SKF 86002). The note with it: time-dependent if the IC50 values decrease with the reaction time (more than two-fold in four hours). The protocol: The reaction was initiated by addition of the enzyme. […] By comparison of rfu (relative fluorescence unit) values with that of a control (in the absence of an inhibitor), the percentage of inhibition at each concentration of the inhibitor was calculated. IC50 value for the inhibitor was calculated from the % inhibition values obtained at a range of concentrations of the inhibitor using Prism. When time-dependent inhibition was assessed, the plate was read at multiple reaction times such as 0.5, 1, 2, 3, 4 and 6 hours. The IC50 values were calculated at the each time point. An inhibition was assigned as time-dependent if the IC50 values decrease with the reaction time (more than two-fold in four hours).

The target in assay [7] is T1, KDR kinase. Nature of the assay: KDR kinase assay K1. In kind it is biochemical. As to conditions: read-out: Results, % @ concentration μM, Method K1; @ 10 μM. The method, then:
as §2

Assay [8] addresses T4, Abl kinase. The assay is described as follows: Abl kinase assay A1. The assay is classed as biochemical. As to conditions: read-out: Results, % @ concentration μM, Method A1; @ 1 μM. The method, then:
as §2

In assay [9] the test system is TNF-alpha release from human peripheral blood mononuclear leukocytes. The assay is described as follows: Human peripheral blood mononuclear leukocyte cell assay (LPS-induced TNF-alpha release, ELISA). In kind it is cell-based. The note with it: 25 ng/mL LPS, 16 hours, read-out: IC50, uM (inhibition of TNF-alpha release). The protocol: The quantity of LPS-induced tumor necrosis factor-alpha (TNF-alpha) cytokine release is measured by a commercially available Enzyme-Linked Immunosorbent Assay (ELISA) kit. Test compounds are evaluated for their ability to inhibit TNF-alpha release.

T1 sequence (P35968 with tags, fused parts or gaps DEL940-989/E990V): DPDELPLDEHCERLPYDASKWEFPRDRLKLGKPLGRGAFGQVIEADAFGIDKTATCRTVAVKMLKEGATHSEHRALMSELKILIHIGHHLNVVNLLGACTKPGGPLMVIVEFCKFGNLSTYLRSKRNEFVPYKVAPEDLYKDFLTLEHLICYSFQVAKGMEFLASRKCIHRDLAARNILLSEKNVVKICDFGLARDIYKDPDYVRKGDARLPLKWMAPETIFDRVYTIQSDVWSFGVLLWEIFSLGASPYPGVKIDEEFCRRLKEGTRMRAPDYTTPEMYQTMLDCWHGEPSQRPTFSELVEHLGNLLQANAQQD
T3 sequence (Q16539 whole entry): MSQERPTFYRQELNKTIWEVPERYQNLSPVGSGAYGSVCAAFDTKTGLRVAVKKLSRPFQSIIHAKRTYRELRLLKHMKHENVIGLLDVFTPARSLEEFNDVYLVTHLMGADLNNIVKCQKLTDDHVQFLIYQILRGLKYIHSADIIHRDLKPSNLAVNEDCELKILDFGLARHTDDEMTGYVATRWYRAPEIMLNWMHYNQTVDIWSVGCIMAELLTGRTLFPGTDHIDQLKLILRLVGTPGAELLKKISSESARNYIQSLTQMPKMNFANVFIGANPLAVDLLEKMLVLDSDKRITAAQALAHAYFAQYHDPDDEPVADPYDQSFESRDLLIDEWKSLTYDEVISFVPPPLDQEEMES
Sequence of p38 MAP kinase (Q16539 whole entry): as above
Sequence of phosphorylated p-38-alpha kinase (Q16539 1-360 isoform Q16539-2): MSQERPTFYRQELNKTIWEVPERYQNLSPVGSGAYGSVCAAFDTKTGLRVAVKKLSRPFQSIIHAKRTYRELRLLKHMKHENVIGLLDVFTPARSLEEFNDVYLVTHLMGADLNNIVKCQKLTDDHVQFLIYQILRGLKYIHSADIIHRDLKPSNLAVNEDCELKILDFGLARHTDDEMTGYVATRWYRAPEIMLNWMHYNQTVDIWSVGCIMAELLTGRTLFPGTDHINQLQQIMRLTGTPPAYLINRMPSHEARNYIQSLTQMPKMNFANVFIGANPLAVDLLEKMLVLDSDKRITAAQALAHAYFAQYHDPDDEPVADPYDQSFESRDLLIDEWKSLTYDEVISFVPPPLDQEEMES

For the compound `C=C1NS(=O)(=O)N(Cc2cccc(-n3nc(C(C)(C)C)cc3NC(=O)Nc3cccc(Cl)c3Cl)c2)C1=O` [Example 511, 1-{5-t-butyl-2-[3-(4-methylene-1,1,3-trioxo-[1,2,5]thiadiazolidin-2-ylmethyl)-phenyl]-2H-pyrazol-3-yl}-3-(2,3-dichlorophenyl)-urea], the IC50 against KDR kinase [1] was 14 nM; against B-Raf(V599E) kinase [2] it was 1.7 µM; in assay [3], 0.024 µM; against Abl kinase [4], 0.25 µM.

As for `Cc1ccc(NC(=O)Nc2cc(C(C)(C)C)nn2-c2cccc(CC(N)=O)c2)cc1Nc1ncccn1` [Example 515, 1-(1-(3-(2-amino-2-oxoethyl)phenyl)-3-tert-butyl-1H-pyrazol-5-yl)-3-(4-methyl-3-(pyrimidin-2-ylamino)phenyl)urea], the “Results, % @ concentration μM” value in assay [5] worked out at 90% @1.0. The inhibition at 1 µM at B-Raf(V599E) kinase [6] turned out to be 27%.

Regarding `CC(C)(C)c1cc(NC(=O)Nc2cccc3ccccc23)n(-c2cccc(CC(=O)N3CCOCC3)c2)n1` [Example 21, 1-{3-t-butyl-1-[3-(2-morpholino-2-oxoethyl)phenyl]-1H-pyrazol-5-yl}-3-(naphthalene-1-yl)urea], the Time-dependent result on p38 MAP kinase was “Yes”.

Regarding `O=C(Cc1cccc(-n2nc(-c3ccccc3F)cc2NC(=O)Nc2cccc(Cl)c2Cl)c1)NCC(O)CO` (stereo not shown) [Example 459, 1-(2,3-dichlorophenyl)-3-(1-(3-(2-(2,3-dihydroxypropylamino)-2-oxoethyl)phenyl)-3-(2-fluorophenyl)-1H-pyrazol-5-yl)urea], the IC50 stood at 0.02 µM in assay [3] and 0.005 µM in assay [5]. Further, the inhibition at 10 µM on KDR kinase [7] was 33%; at B-Raf(V599E) kinase [6] it was 5%.

Take `CC1(C(=O)O)CC2(C)CC(C)(C1)C(=O)N(Cc1cccc(-n3nc(C(C)(C)C)cc3NC(=O)Nc3ccc(Cl)cc3)c1)C2=O` (stereo not shown) [Example 12]: the Time-dependent result at p38 MAP kinase was “No”.

As for `O=C(Cc1cccc(-n2nc(C3CCCC3)cc2NC(=O)Nc2cccc(Cl)c2Cl)c1)NCCO` [Example 488, 1-(3-cyclopentyl-1-(3-(2-(2-hydroxyethylamino)-2-oxoethyl)phenyl)-1H-pyrazol-5-yl)-3-(2,3-dichlorophenyl)urea], the inhibition at 1 µM is 41% at KDR kinase [1] (read-out: Results, % @ concentration μM) and 21% on B-Raf(V599E) kinase [6]. For the same compound, the results for the IC50 in assay [3] and in assay [5] were 0.54 µM and 0.007 µM, respectively.

For the compound `O=C(Cc1ccc(-n2nc(-c3ccccc3F)cc2NC(=O)Nc2cccc(Cl)c2Cl)cc1)NCC(O)CO` (stereo not shown) [Example 471, 1-(2,3-dichlorophenyl)-3-(1-(4-(2-(2,3-dihydroxypropylamino)-2-oxoethyl)phenyl)-3-(2-fluorophenyl)-1H-pyrazol-5-yl)urea], on Abl kinase [8], the inhibition at 1 µM was determined as 14%. Moreover, the IC50 in assay [5] was found to be 0.016 µM. In addition, the inhibition at 10 µM on B-Raf(V599E) kinase [6] came out at 39%.

Turning to `O=C(O)Cc1cccc(-n2nc(-c3ccsc3)cc2NC(=O)Nc2cccc(Cl)c2Cl)c1` [Example 436, 2-(3-(5-(3-(2,3-dichlorophenyl)ureido)-3-(thiophen-3-yl)-1H-pyrazol-1-yl)phenyl)acetic acid], the “% @ concentration, uM” value in [3] (@ 0.1 uM) is reported as 16%; in [3] (@ 1 uM), 41%. Further, the figures for the IC50 (in assay [5]; against B-Raf(V599E) kinase [6]) were 0.007 µM and 3.7 µM, respectively.

In the case of `CC(C)(C)c1cc(NC(=O)Nc2cccc(Oc3cccnc3)c2)n(-c2cccc(CC(N)=O)c2)n1` [Example 500, 1-(1-(3-(2-amino-2-oxoethyl)phenyl)-3-tert-butyl-1H-pyrazol-5-yl)-3-(3-(pyridin-3-yloxy)phenyl)urea], the IC50 against KDR kinase [1] worked out at 9 nM; against B-Raf(V599E) kinase [2], 0.01 µM; at Abl kinase [4], 0.021 µM; in [5] it was 0.017 µM.

Consider `Cc1ccc(NC(=O)Nc2cc(C(C)(C)C)nn2-c2cccc(CC(=O)NCC(O)CO)c2)cc1Nc1nccc(-c2cccnc2)n1` (stereo not shown) [Example 517, 1-(3-tert-butyl-1-(3-(2-(2,3-dihydroxypropylamino)-2-oxoethyl)phenyl)-1H-pyrazol-5-yl)-3-(4-methyl-3-(4-(pyridin-3-yl)pyrimidin-2-ylamino)phenyl)urea], for which the IC50 at Abl kinase [4] is 0.0022 µM; against B-Raf(V599E) kinase [6], 0.075 µM.

On to `NC(=O)Cc1cccc(-n2nc(C(F)(F)F)cc2NC(=O)Nc2cccc(Oc3cccnc3)c2)c1` [Example 503, 1-(1-(3-(2-amino-2-oxoethyl)phenyl)-3-(trifluoromethyl)-1H-pyrazol-5-yl)-3-(3-(pyridin-3-yloxy)phenyl)urea], for which the IC50 against KDR kinase [1] amounted to 190 nM; on B-Raf(V599E) kinase [2], 0.13 µM; at Abl kinase [4], 0.29 µM.

With `CC1(C(=O)O)CC2(C)CC(C)(C1)C(=O)N(Cc1cccc(-n3nc(C(C)(C)C)cc3NC(=O)Nc3cccc4ccccc34)c1)C2=O` (stereo not shown) [Example 11], on p38 MAP kinase, the Time-dependent entry was “No”.

On to `CCOC(=O)Cc1cccc(-n2nc(C(C)(C)C)cc2NC(=O)Nc2ccc3c(c2)OCO3)c1` [Example 296, ethyl 2-(3-{5-[3-(benzo[d][1,3]dioxol-5-yl)ureido]-3-t-butyl-1H-pyrazol-1-yl}phenyl)-acetate], for which, in assay [9], the IC50 came to 3.49 µM.

Regarding `CC(C)(C)c1cc(NC(=O)Nc2cccc3ccccc23)n(-c2ccc(CN)cc2)n1` [Example 45, 1-{3-t-butyl-1-[4-(aminomethyl)phenyl]-1H-pyrazol-5-yl}-3-(naphthalen-1-yl)urea], on p38 MAP kinase, the Time-dependent entry was “No”.

As to `O=C(Cc1ccc(-n2nc(-c3ccccc3F)cc2NC(=O)Nc2cccc(Cl)c2Cl)cc1)NC(CO)CO` [Example 473, 1-(2,3-dichlorophenyl)-3-(1-(4-(2-(1,3-dihydroxypropan-2-ylamino)-2-oxoethyl)phenyl)-3-(2-fluorophenyl)-1H-pyrazol-5-yl)urea], the IC50 in assay [3] is 0.004 µM; in assay [5], 0.03 µM. Besides, the inhibition at 10 µM at B-Raf(V599E) kinase [6] worked out at 4%.

In the case of `CN(C)CCc1cccc(-n2nc(C(C)(C)C)cc2NC(=O)Nc2ccc3c(c2)OCO3)c1` [Example 300, 1-(benzo[d][1,3]dioxol-5-yl)-3-{3-t-butyl 1-(3-[2-(dimethylamino)ethyl]phenyl}-1H-pyrazol-5-yl)urea], the IC50 in assay [9] was found to be 4.78 µM.

In the case of `NC(=O)Cc1cccc(-n2nc(C3CCCC3)cc2NC(=O)Nc2ccc(-c3cccc4c3CNC4=O)cc2)c1` [Example 512, 1-(1-(3-(2-amino-2-oxoethyl)phenyl)-3-cyclopentyl-1H-pyrazol-5-yl)-3-(4-(1-oxoisoindolin-4-yl)phenyl)urea], the IC50 against KDR kinase [1] worked out at 29 nM; in assay [3], 0.032 µM; against Abl kinase [4], 0.11 µM. For the same compound, in [5], the “Results, % @ concentration μM” value is recorded as 82% @1.0.
